Data taken from article PMC12920294, “Optimizing uPAR-targeting radiopeptides for improved tissue distribution: progress towards radionuclide therapy” (European Journal of Nuclear Medicine and Molecular Imaging, 2025).
Where two headings read alike, the source gives them in different places.

Experiments:
[1] = type: in vitro ADME; conditions: 1 µM
Experimental: The ^177Lu-labeled peptides (50 MBq/nmol) were incubated in mouse or human blood plasma (10 MBq/200 µL) over an incubation period of 24 h at 37 °C. Aliquots and control samples of the radiopeptides diluted in saline were analyzed after 1 h, 4 h and 24 h using thin layer chromatography (TLC) as previously reported (Supplementary Material). The distribution coefficients (logD values) of the ^177Lu-labeled peptides (50 MBq/nmol) were determined using a shake-flask method according to a previously published procedure (Supplementary Material).
Methods: A sample of each radiopeptide (50 MBq/nmol) was added to mouse blood plasma (Lot: 32321, Rockland Immunochemicals Inc., USA) or to human blood plasma (Stiftung Blutspende SRK Aargau-Solothurn, Switzerland) to obtain an activity concentration of 10 MBq/200 µL. The test samples were incubated at 37 °C for up to 24 h. Control samples referred to the radiopeptides which were instead diluted in saline at an activity concentration of 10 MBq/200 µL. Aliquots of each sample (2 µL, ~100 kBq) were taken after 1 h, 4 h and 24 h and investigated by means of thin layer chromatography (TLC). The employed method involved reversed-phase TLC plates (MERCK Analytical Chromatography, TLC Silica gel 60 RP-18 F254s) as stationary phase and ACN/citrate buffer (3:7; v/v; pH 5.5) as mobile phase. After the eluent reached the front line, the TLC plates were dried and exposed to a phosphor screen (Super resolution screen PSR10450013, PerkinElmer) for 1 min. The respective screen was developed using a storage phosphor system (Cyclone Plus, PerkinElmer) and analyzed using the OptiQuant Software (version 5.0, Bright Instrument Co Ltd., PerkinElmer).

in vivo = conditions: CD1 nude, mouse, 0.5 nmol/mouse, total radioactivity
Experimental: HEK-uPAR xenografted mice were injected with the respective radiopeptide (5 MBq, 0.5 nmol/mouse, 100 µL 0.9% NaCl containing 0.05% BSA) and sacrificed at 4 h and 24 h after injection. […] The tissues and organs of interest were collected, weighed and counted for activity using a γ-counter (Wallac Wizard 1480, PerkinElmer). […] The results were presented as the average ± SD of n = 3 mice. The time-activity curves were determined for the uptake of [^177Lu]Lu-DOTA-AE105 and [^177Lu]Lu-uPAR-11 in the blood, HEK-uPAR xenografts, kidneys and liver based on non-decay corrected biodistribution data. For the blood, the initial uptake (t = 0) was set as 50% IA/g assuming a blood volume of 2 mL for CD1 nude mice. The initial uptake value (t = 0) for all other organs and tissues was set as 0% IA/g. […] The area under the curves over 48 h after injection (AUC0h→48 h) was calculated using GraphPad Prism software (version 10.1.1). Statistical analyses were performed by applying a one-way ANOVA test with a Dunnet’s multiple comparison post‐test to compare the data of the new radiopeptides with those of [^177Lu]Lu-DOTA-AE105 and a Tukey’s multiple comparisons post‐test to compare the novel radiopeptides among them. A p-value of < 0.05 was considered a statistically significant difference using GraphPad Prism software (version 10.1.1).

physchem = type: physicochemical; conditions: pH 7.4
Experimental: The ^177Lu-labeled peptides (50 MBq/nmol) were incubated in mouse or human blood plasma (10 MBq/200 µL) over an incubation period of 24 h at 37 °C. Aliquots and control samples of the radiopeptides diluted in saline were analyzed after 1 h, 4 h and 24 h using thin layer chromatography (TLC) as previously reported (Supplementary Material). The distribution coefficients (logD values) of the ^177Lu-labeled peptides (50 MBq/nmol) were determined using a shake-flask method according to a previously published procedure (Supplementary Material). Methods: The radiopeptides (50 MBq/nmol) were diluted in phosphate buffered saline (PBS) pH 7.4 to obtain an activity concentration of 10 MBq/500 µL. A sample of this radiopeptide solution (~0.5 MBq, 25 µL, 0.01 nmol) was added to a mixture of PBS pH 7.4 (1475 µL) and n-octanol (1500 µL). The vials were vortexed vigorously for 1 min followed by centrifugation (560 rcf, 25°C, 6 min) for phase separation. Aliquots were taken from each phase and measured in a γ-counter (Wallac Wizard 1480, PerkinElmer). The distribution coefficients were calculated as the logarithmic value of the ratio of counts per minute (cpm) measured in the n-octanol phase relative to the cpm measured in the PBS phase. The results were listed as average ± SD of the data obtained from 3 independent experiments, each performed with five replicates.

SMILES | Human blood plasma stability, intact radiopeptide ([1]; 1 h) | Mouse blood plasma stability, intact radiopeptide ([1]; 1 h) | Human blood plasma stability, intact radiopeptide ([1]; 4 h) | Mouse blood plasma stability, intact radiopeptide ([1]; 4 h) | Human blood plasma stability, intact radiopeptide ([1]; 24 h) | Mouse blood plasma stability, intact radiopeptide ([1]; 24 h) | tissue uptake at 4 h (in vivo; Blood uptake) | tissue uptake at 24 h (in vivo; Blood uptake) | tissue uptake at 4 h (in vivo; Bone uptake) | tissue uptake at 24 h (in vivo; Bone uptake) | tissue uptake at 4 h (in vivo; Brain uptake) | tissue uptake at 24 h (in vivo; Brain uptake) | tissue uptake at 4 h (in vivo; HEK-uPAR xenograft uptake) | tissue uptake at 24 h (in vivo; HEK-uPAR xenograft uptake) | tissue uptake at 4 h (in vivo; Heart uptake) | tissue uptake at 24 h (in vivo; Heart uptake) | tissue uptake at 4 h (in vivo; Intestines uptake) | tissue uptake at 24 h (in vivo; Intestines uptake) | tissue uptake at 4 h (in vivo; Kidneys uptake) | tissue uptake at 24 h (in vivo; Kidneys uptake) | other results
Cc1ccc(CCCC(=O)NCCCCCCCC(=O)NCCCC[C@H](NC(=O)CN2CCN(CC(=O)O)CCN(CC(=O)O)CCN(CC(=O)O)CC2)C(=O)N[C@@H](CC(=O)O)C(=O)N[C@@H](CC2CCCCC2)C(=O)N[C@@H](Cc2ccccc2)C(=O)N[C@H](CO)C(=O)N[C@H](CCCNC(=N)N)C(=O)N[C@@H](Cc2ccc(O)cc2)C(=O)N[C@@H](CC(C)C)C(=O)N[C@@H](Cc2c[nH]c3ccccc23)C(=O)N[C@@H](CO)C(N)=O)cc1 [[^177Lu]Lu-uPAR-12, metal not drawn] | 100 ± 1% | 100 ± 1% | 99 ± 1% | 99 ± 1% | 98 ± 1% | 99 ± 1% | 12 ± 1 %ID/g | 3.4 ± 1 %ID/g | 1.4 ± 0.1 %ID/g | 0.78 ± 0.15 %ID/g | 0.24 ± 0.01 %ID/g | 0.1 ± 0.03 %ID/g | 6 ± 0.2 %ID/g | 5.7 ± 0.7 %ID/g | 4 ± 0.3 %ID/g | 1.6 ± 0.2 %ID/g | 1.5 ± 0.1 %ID/g | 0.76 ± 0.12 %ID/g | 3.9 ± 0.1 %ID/g | 4.3 ± 0.3 %ID/g | tissue uptake at 4 h (in vivo; Liver uptake): 5.3 ± 0.3 %ID/g; tissue uptake at 24 h (in vivo; Liver uptake): 4.2 ± 0.3 %ID/g; tissue uptake at 4 h (in vivo; Lung uptake): 7.2 ± 1.3 %ID/g; tissue uptake at 24 h (in vivo; Lung uptake): 2.6 ± 0.6 %ID/g; tissue uptake at 4 h (in vivo; Muscle uptake): 1.2 ± 0.1 %ID/g; tissue uptake at 24 h (in vivo; Muscle uptake): 0.6 ± 0.22 %ID/g; tissue uptake at 4 h (in vivo; Pancreas uptake): 1.4 ± 0.2 %ID/g; tissue uptake at 24 h (in vivo; Pancreas uptake): 0.79 ± 0.24 %ID/g; tissue uptake at 4 h (in vivo; Salivary glands uptake): 2.7 ± 0.2 %ID/g; tissue uptake at 24 h (in vivo; Salivary glands uptake): 1.4 ± 0.2 %ID/g; tissue uptake at 4 h (in vivo; Spleen uptake): 1.9 ± 0.1 %ID/g; tissue uptake at 24 h (in vivo; Spleen uptake): 2 ± 0.6 %ID/g; tissue uptake at 4 h (in vivo; Stomach uptake): 1.4 ± 0.1 %ID/g; tissue uptake at 24 h (in vivo; Stomach uptake): 0.52 ± 0.16 %ID/g; logD (physchem): 0.96 ± 0.15
Cc1ccc(CCCC(=O)NCCOCCOCCOCCOCCC(=O)NC[C@H](NC(=O)CN2CCN(CC(=O)O)CCN(CC(=O)O)CCN(CC(=O)O)CC2)C(=O)N[C@@H](CC(=O)O)C(=O)N[C@@H](CC2CCCCC2)C(=O)N[C@@H](Cc2ccccc2)C(=O)N[C@H](CO)C(=O)N[C@H](CCCNC(=N)N)C(=O)N[C@@H](Cc2ccc(O)cc2)C(=O)N[C@@H](CC(C)C)C(=O)N[C@@H](Cc2c[nH]c3ccccc23)C(=O)N[C@@H](CO)C(N)=O)cc1 [[^177Lu]Lu-uPAR-14, metal not drawn] | 100 ± 1% | 100 ± 1% | 100 ± 1% | 97 ± 4% | 97 ± 2% | 99 ± 2% | 4.5 ± 0.2 %ID/g | 0.06 ± 0.01 %ID/g | 0.66 ± 0.09 %ID/g | 0.19 ± 0.03 %ID/g | 0.1 ± 0.01 %ID/g | < 0.03 %ID/g | 9 ± 0.5 %ID/g | 3.4 ± 0.3 %ID/g | 1.7 ± 0.1 %ID/g | 0.15 ± 0.01 %ID/g | 0.81 ± 0.04 %ID/g | 0.21 ± 0.03 %ID/g | 4 ± 0.3 %ID/g | 2 ± 0.3 %ID/g | tissue uptake at 4 h (in vivo; Liver uptake): 2 ± 0.2 %ID/g; tissue uptake at 24 h (in vivo; Liver uptake): 0.47 ± 0.05 %ID/g; tissue uptake at 4 h (in vivo; Lung uptake): 3 ± 0.6 %ID/g; tissue uptake at 24 h (in vivo; Lung uptake): 0.3 ± 0.02 %ID/g; tissue uptake at 4 h (in vivo; Muscle uptake): 0.51 ± 0.02 %ID/g; tissue uptake at 24 h (in vivo; Muscle uptake): 0.05 ± 0.01 %ID/g; tissue uptake at 4 h (in vivo; Pancreas uptake): 0.68 ± 0.03 %ID/g; tissue uptake at 24 h (in vivo; Pancreas uptake): 0.12 ± 0.01 %ID/g; tissue uptake at 4 h (in vivo; Salivary glands uptake): 1.1 ± 0.1 %ID/g; tissue uptake at 24 h (in vivo; Salivary glands uptake): 0.26 ± 0.03 %ID/g; tissue uptake at 4 h (in vivo; Spleen uptake): 0.99 ± 0.08 %ID/g; tissue uptake at 24 h (in vivo; Spleen uptake): 0.54 ± 0.11 %ID/g; tissue uptake at 4 h (in vivo; Stomach uptake): 0.69 ± 0.13 %ID/g; tissue uptake at 24 h (in vivo; Stomach uptake): 0.16 ± 0.03 %ID/g; logD (physchem): -0.13 ± 0.08
